Test system: 349418-098-R tumor spheroid viability
Assay: Anticancer human tumor 349418-098-R patient-derived lung adenocarcinoma cell line growth inhibition
Settings: spheroids with HUVEC and MSC; for viability, T/C: stronger effect = lower value
In short: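 Single agents and combinations were tested on spheroids built from tumor cells plus HUVEC and hMSC, at half-log dilutions starting at or near clinical Cmax, else 10 microM; final DMSO 0.25% (v/v).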
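Note: spheroids exposed to compound for 7 days before measurement.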
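Throughout, for viability, T/C: percent of vehicle control viability with 100% = DMSO-treated spheroids.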

## Cc1cc(C)c(CNC(=O)c2cc(-c3ccc(CN4CCOCC4)cc3)cc3c2cnn3C2CCCC2)c(=O)[nH]1 + COc1cc2c(cc1O)CCNC21CSC2c3c(OC(C)=O)c(C)c4c(c3C(COC1=O)N1C(O)C3Cc5cc(C)c(OC)c(O)c5C(C21)N3C)OCO4
Curve of first compound, second compound 30 pM
  IC50: > 10 µM
Curve of first compound, second compound 94.9 pM
  IC50: > 10 µM
Curve of first compound, second compound 0.0003 µM
  IC50: > 10 µM
Curve of first compound, second compound 0.000949 µM
  IC50: < 0.0316 µM
Curve of first compound, second compound 0.003 µM
  IC50: < 0.0316 µM
Second compound 30 pM, first compound 0.0316 µM
  viability, T/C: 103%
Second compound 30 pM, first compound 0.1 µM
  viability, T/C: 97.3%
Second compound 30 pM, first compound 0.316 µM
  viability, T/C: 105%
Second compound 30 pM, first compound 1 µM
  viability, T/C: 119%
Second compound 30 pM, first compound 3.16 µM
  viability, T/C: 114%
Second compound 30 pM, first compound 10 µM
  viability, T/C: 104%
Second compound 94.9 pM, first compound 0.0316 µM
  viability, T/C: 104%
Second compound 94.9 pM, first compound 0.1 µM
  viability, T/C: 97.9%
Second compound 94.9 pM, first compound 0.316 µM
  viability, T/C: 102%
Second compound 94.9 pM, first compound 1 µM
  viability, T/C: 118%
Second compound 94.9 pM, first compound 3.16 µM
  viability, T/C: 115%
Second compound 94.9 pM, first compound 10 µM
  viability, T/C: 77.7%
Second compound 0.0003 µM, first compound 0.0316 µM
  viability, T/C: 98.4%
Second compound 0.0003 µM, first compound 0.1 µM
  viability, T/C: 90.4%
Second compound 0.0003 µM, first compound 0.316 µM
  viability, T/C: 98.1%
Second compound 0.0003 µM, first compound 1 µM
  viability, T/C: 100%
Second compound 0.0003 µM, first compound 3.16 µM
  viability, T/C: 98.6%
Second compound 0.0003 µM, first compound 10 µM
  viability, T/C: 72.6%
Second compound 0.000949 µM, first compound 0.0316 µM
  viability, T/C: 0.39%
Second compound 0.000949 µM, first compound 0.1 µM
  viability, T/C: 0.81%
Second compound 0.000949 µM, first compound 0.316 µM
  viability, T/C: 0.5%
Second compound 0.000949 µM, first compound 1 µM
  viability, T/C: 0.48%
Second compound 0.000949 µM, first compound 3.16 µM
  viability, T/C: 0.45%
Second compound 0.000949 µM, first compound 10 µM
  viability, T/C: 0.53%
Second compound 0.003 µM, first compound 0.0316 µM
  viability, T/C: 1.51%
Second compound 0.003 µM, first compound 0.1 µM
  viability, T/C: 1.6%
Second compound 0.003 µM, first compound 0.316 µM
  viability, T/C: 1.61%
Second compound 0.003 µM, first compound 1 µM
  viability, T/C: 1.74%
Second compound 0.003 µM, first compound 3.16 µM
  viability, T/C: 2.05%
Second compound 0.003 µM, first compound 10 µM
  viability, T/C: 0.75%

## COc1cc2c(cc1O)CCNC21CSC2c3c(OC(C)=O)c(C)c4c(c3C(COC1=O)N1C(O)C3Cc5cc(C)c(OC)c(O)c5C(C21)N3C)OCO4 (stereo not given)
Compound 94.9 pM
  viability, T/C: 90.5% [middle of 10 runs]
Compound 0.0003 µM
  viability, T/C: 88.1% [middle of 10 runs]
Compound 0.000949 µM
  viability, T/C: 0.55% [middle of 10 runs]
Compound 0.003 µM
  viability, T/C: 1.4% [middle of 9 runs]
Compound alone, run of 10/25/2019
  IC50: 0.496 nM [middle of 9 runs]
